Results taken from publication PMC2138508 (The Journal of Experimental Medicine, 1968).
Ends that are not written are not given here.

Test system: renin
Assay type: biochemical, hog
Conditions: for Vmax per Goldblatt unit/ml: average over the renin concentrations used; for Km relative to the tetradecapeptide (times larger): ratio of Km values

| Substance | Vmax per Goldblatt unit/ml (pH 7.5, 37.5C) | other results |
| --- | --- | --- |
| HPFHLLV | – | Average Km (mean of the Km values at the two renin concentrations, pH 7.5, 37.5C): eo; Substrate activity with renin (renin 0.183 Goldblatt units/ml, pH 7.5, 37.5C): no hydrolysis occurred |
| Ileu His Pro Phe His Leu Leu Val Tyr Ser | 10.9 x 10-6 M/min per Goldblatt uni | – |
| NRVYVHPFHLLVYS [reference compound] | 9.1 x 10-6 M/min per Goldblatt uni | – |
| Tyr Ileu His Pro Phe His Leu Leu Val Tyr Ser | 9.8 x 10-6 M/min per Goldblatt uni | – |
| HPFHLLVYS [his^6-pro^7-phe^8-his^9-leu^10-leu^11-val^12-tyr^13-ser^14] | 11.7 x 10-6 M/min per Goldblatt uni | Km relative to the tetradecapeptide (times larger): ~ 12 times |
| Val Tyr Ileu His Pro Phe His Leu Leu Val Tyr Ser | 8.9 x 10-6 M/min per Goldblatt uni | Vmax (renin concentration 0.0195 Goldblatt units/ml (so in the source), pH 7.5, 37.5C): 9.1e-07 M/min |
| PFHLLVYS | 0.55 x 10-6 M/min per Goldblatt uni | Vm as printed in the Lineweaver-Burk plot of Fig. 4 (value of the figure where it differs from Table I): 0.6 x 10-6 M/min/Goldblatt unit |
| HPFHLLVY [his^6-pro^7-phe^8-his^9-leu^10-leu^11-val^12-tyr^13] | 7.6 x 10-6 M/min per Goldblatt uni | Km relative to the tetradecapeptide (times larger): ~ 12 times |
| Asp Arg Val Tyr Ileu His Pro Phe His Leu Leu Val Tyr Ser [asp^1-arg^2-val^3-tyr^4-ileu^5-his^6-pro^7-phe^8-his^9-leu^10-leu^11-val^12-tyr^13-ser^14] | 10.2 x 10-6 M/min per Goldblatt uni | – |
